Values after ≈ are worked out from the molar mass of the structure shown.
System: P388
Assay: Cytotoxicity against mouse P388 cells
Assay type: functional
Settings: read-out: ED50 (the source's name)

In the case of `CC1CO[C@]2(CC1OC(=O)/C=C/c1ccccc1)OC1CC(C(=O)O[C@@H]3O[C@H](CO)[C@@H](O)[C@H](O)[C@H]3O[C@@H]3O[C@H](C)[C@@H](O)[C@H](O)[C@H]3O)CCC1[C@]21CO1` (stereo partly specified) [PHYLLANTHOSTATIN 6], the EC50 is reported as 0.35 µg/mL (≈ 0.475 µM).

Source: ChEMBL document CHEMBL1158922, “Antineoplastic agents, 177. Isolation and structure of phyllanthostatin 6” (1990)
